Patent US20250179103A1, “6-OXODECAHYDROPYRROLO[1,2-A][1,5]DIAZOCINE AND 6-OXODECAHYDRO-4H-PYRROLO[2,1-D][1,5]THIAZOCINE DERIVATIVES AS STAT3 AND STAT6 MODULATORS FOR THE TREATMENT OF CANCER AND INFLAMMATORY CONDITIONS” (Recludix Pharma, Inc., priority 2022, published 2025)

Tests used:
[1] = test system: pY641-STAT6 in Peripheral Blood Mononuclear Cells (PBMC); experiment: MSD-pSTAT-PBMC Assay (pSTAT6, IL-4 stimulated); assay type: cell-based, Human; conditions: Homo sapiens, compound 3 hrs, then 1 ng/mL IL-4 for 10 min
In short: (§1)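 Human PBMCs were preincubated 3 h with compound, then stimulated 10 min with 10 ng/mL IL-6 (pY705-STAT3) or 1 ng/mL IL-4 (pY641-STAT6). Lysates were read by MSD sandwich immunoassay, capturing total STAT and detecting phospho-STAT. Signal was unstimulated-subtracted and DMSO-normalised, with variable-slope IC50 binned A–D.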

[2] = test system: pY705-STAT3 in Peripheral Blood Mononuclear Cells (PBMC); experiment: MSD-pSTAT-PBMC Assay (pSTAT3, IL-6 stimulated); assay type: cell-based, Human; conditions: Homo sapiens, compound 3 hrs, then 10 ng/mL IL-6 for 10 min
In short: as §1

Q: Which IC50 [1] does the source give for `CC(=O)N1CC[C@H]2CC[C@@H](C(=O)N(C)c3ccc(N4CCOCC4)cc3)N2C(=O)[C@@H](NC(=O)c2cc3cc(C(F)(F)P(=O)(OCOC(=O)C(C)(C)C)OCOC(=O)C(C)(C)C)ccc3s2)C1` [Compound 311, ((((2-(((5S, 8S,10aR)-3-acetyl-8-(methyl(4-morpholino-phenyl)carbamoyl)-6-oxodecahydro-pyrrolo[1,2-a][1,5]diazocin-5-yl)carbamoyl)benzo[b]thiophen-5-yl)difluoro-methyl)phos-phoryl)bis(oxy)) bis(methylene) bis(2,2-dimethylpro-panoate)] here?
A: 0.1 to 1 µM

Q: And the IC50 [2]?
A: 1 to 3 µM

Q: Which results are given for `CC(=O)N1CC[C@H]2CC[C@@H](C(=O)N(C)C3CCN(S(C)(=O)=O)CC3)N2C(=O)[C@@H](NC(=O)c2cc3cc(C(F)(F)P(=O)(OCOC(=O)C(C)(C)C)OCOC(=O)C(C)(C)C)ccc3s2)C1` [Compound 312, ((((2-(((5S, 8S,10aR)-3-acetyl-8-(methyl(1-(methyl-sulfonyl)piperidin-4-yl)carbamoyl)-6-oxodecahydro-pyrrolo[1,2-a][1,5]diazocin-5-yl)carbamoyl)benzo[b]thiophen-5-yl)difluoro-methyl)phos-phoryl)bis(oxy))bis (methylene) bis(2,2-dimethylpro-panoate)]?
A: IC50 [1]: 0.1 to 1 µM; IC50 [2]: > 3 µM

Q: What does the source list for `CC(=O)N1CC[C@H]2CC[C@@H](C(=O)NC3CCN(S(C)(=O)=O)CC3)N2C(=O)[C@@H](NC(=O)c2cc3cc(C(F)(F)P(=O)(OCOC(=O)C(C)(C)C)OCOC(=O)C(C)(C)C)ccc3s2)C1` [Compound 313, ((((2-(((5S, 8S,10aR)-3-acetyl-8-((1-(methyl-sulfonyl)piperidin-4-yl)carbamoyl)-6-oxodecahydro-pyrrolo[1,2-a][1,5]diazocin-5-yl)carbamoyl)benzo[b]thiophen-5-yl)difluoro-methyl)phos-phoryl)bis(oxy)) bis(methylene) bis(2,2-dimethylpro-panoate)]?
A: IC50 [1]: 1 to 3 µM; IC50 [2]: > 3 µM

Q: Which IC50 [1] does the source give for `CC(=O)N1CC[C@H]2CC[C@@H](C(=O)Nc3ccc(S(C)(=O)=O)cc3)N2C(=O)[C@@H](NC(=O)c2cc3cc(C(F)(F)P(=O)(OCOC(=O)C(C)(C)C)OCOC(=O)C(C)(C)C)ccc3s2)C1` [Compound 314, ((((2-(((5S, 8S,10aR)-3-acetyl-8-((4-(methyl-sulfonyl)phenyl)carbamoyl)-6-oxodecahydro-pyrrolo[1,2-a][1,5]diazocin-5-yl)carbamoyl)benzo[b]thiophen-5-yl)difluoro-methyl)phos-phoryl)bis(oxy))bis (methylene) bis(2,2-dimethylpro-panoate)] here?
A: 0.1 to 1 µM

Q: And the IC50 [2]?
A: 1 to 3 µM

Q: `CC(=O)N1CC[C@H]2CC[C@@H](C(=O)N(C)c3ccccc3)N2C(=O)[C@@H](NC(=O)/C=C/c2ccc(C(F)(F)P(=O)(OCOC(=O)C(C)(C)C)OCOC(=O)C(C)(C)C)cc2)C1` [Compound 315, ((((4-((E)-3-(((5S,8S, 10aR)-3-acetyl-8-(methyl (phenyl)carbamoyl)-6-oxodecahydro-pyrrolo[1,2-a][1,5]diazocin-5-yl)amino)-3-oxoprop-1-en-1-yl)phenyl)difluoro-methyl)phosphoryl)bis(oxy))bis (methylene) bis(2,2-dimethylpro-panoate)] was tested. Which IC50 [1] did it give?
A: 0.1 to 1 µM

Q: What about the IC50 [2] of the same compound?
A: > 3 µM

Q: Which IC50 [1] does the source give for `CC(=O)N1CC[C@H]2CC[C@@H](C(=O)N(C)c3ccc(C#N)cc3)N2C(=O)[C@@H](NC(=O)c2cc3cc(C(F)(F)P(=O)(OCOC(=O)C(C)(C)C)OCOC(=O)C(C)(C)C)ccc3s2)C1` [Compound 316, ((((2-(((5S,8S, 10aR)-3-acetyl-8-((4-cyanophenyl) (methyl)carbamoyl)-6-oxodecahydro-pyrrolo[1,2-a][1,5]diazocin-5-yl)carbamoyl)benzo[b]thiophen-5-yl)difluoro-methyl)phos-phoryl)bis(oxy)) bis(methylene) bis(2,2-dimethylpro-panoate)] here?
A: 1 to 3 µM

Q: And the IC50 [2]?
A: > 3 µM

Q: Which results are given for `CCOP(=O)(OCC)C(F)(F)c1ccc2sc(C(=O)N[C@H]3CN(C(C)=O)CC[C@H]4CC[C@@H](C(=O)N(C)c5ccccc5)N4C3=O)cc2c1` [Compound 317, diethyl ((2-(((5S,8S, 10aR)-3-acetyl-8-(methyl (phenyl)carbamoyl)-6-oxodecahydro-pyrrolo[1,2-a][1,5]diazocin-5-yl)carbamoyl)benzo[b]thiophen-5-yl)difluoro-methyl)phos-phonate]?
A: IC50 [1]: > 3 µM; IC50 [2]: > 3 µM

Q: What does the source list for `CC(=O)N1CC[C@H]2CC[C@@H](C(=O)N(C)c3ccccc3)N2C(=O)[C@@H](NC(=O)c2cc3cc(C(F)(F)P(=O)(OCOC(=O)OC(C)C)OCOC(=O)OC(C)C)ccc3s2)C1` [Compound 318, ((((2-(((5S,8S, 10aR)-3-acetyl-8-(methyl (phenyl)carbamoyl)-6-oxodecahydro-pyrrolo[1,2-a][1,5]diazocin-5-yl)carbamoyl)benzo[b]thiophen-5-yl)difluoro-methyl)phos-phoryl)bis(oxy)) bis(methylene) diisopropyl bis(carbonate)]?
A: IC50 [1]: 0.1 to 1 µM; IC50 [2]: 0.1 to 1 µM

Q: Which IC50 [1] does the source give for `CC(=O)N1CC[C@H]2CC[C@@H](C(=O)N(C)c3ccc(C(C)(C)C)cc3)N2C(=O)[C@@H](NC(=O)c2cc3cc(C(F)(F)P(=O)(OCOC(=O)C(C)(C)C)OCOC(=O)C(C)(C)C)ccc3s2)C1` [Compound 319, ((((2-(((5S,8S, 10aR)-3-acetyl-8-((4-(tert-butyl)phenyl) (methyl)carbamoyl)-6-oxodecahydro-pyrrolo[1,2-a][1,5]diazocin-5-yl)carbamoyl)benzo[b]thiophen-5-yl)difluoro-methyl)phos-phoryl)bis(oxy)) bis(methylene) bis(2,2-dimethylpro-panoate)] here?
A: ≤ 0.1 µM

Q: And the IC50 [2]?
A: 0.1 to 1 µM

Q: What does the source list for `CC(=O)N1CC[C@H]2CC[C@@H](C(=O)N3CCC[C@H]3Cc3ccccc3)N2C(=O)[C@@H](NC(=O)c2cc3cc(C(F)(F)P(=O)(OCOC(=O)C(C)(C)C)OCOC(=O)C(C)(C)C)ccc3s2)C1` [Compound 320, ((((2-(((5S,8S, 10aR)-3-acetyl-8-((S)-2-benzyl-pyrrolidine-1-carbonyl)-6-oxodecahydro-pyrrolo[1,2-a][1,5]diazocin-5-yl)carbamoyl)benzo[b]thiophen-5-yl)difluoro-methyl)phos-phoryl)bis(oxy)) bis(methylene) bis(2,2-dimethylpro-panoate)]?
A: IC50 [1]: ≤ 0.1 µM; IC50 [2]: 0.1 to 1 µM

Q: Which results are given for `CC(=O)N1CC[C@H]2CC[C@@H](C(=O)N(C)c3ccccc3)N2C(=O)[C@@H](NC(=O)c2ccc3ccc(C(F)(F)P(=O)(OCOC(=O)C(C)(C)C)OCOC(=O)C(C)(C)C)cc3c2)C1` [Compound 321, ((((7-(((5S,8S, 10aR)-3-acetyl-8-(methyl (phenyl)carbamoyl)-6-oxodecahydro-pyrrolo[1,2-a][1,5]diazocin-5-yl)carbamoyl)naphthalen-2-yl)difluoro-methyl)phos-phoryl)bis(oxy)) bis(methylene) bis(2,2-dimethylpro-panoate)]?
A: IC50 [1]: ≤ 0.1 µM; IC50 [2]: 0.1 to 1 µM

Q: What does the source list for `CC(=O)N1CC[C@H]2CC[C@@H](C(=O)N(C)c3ccccc3)N2C(=O)[C@@H](NC(=O)c2ccc3cc(C(F)(F)P(=O)(OCOC(=O)C(C)(C)C)OCOC(=O)C(C)(C)C)ccc3c2)C1` [Compound 322, ((((6-(((5S,8S, 10aR)-3-acetyl-8-(methyl (phenyl)carbamoyl)-6-oxodecahydro-pyrrolo[1,2-a][1,5]diazocin-5-yl)carbamoyl)naphthalen-2-yl)difluoro-methyl)phos-phoryl)bis(oxy)) bis(methylene) bis(2,2-dimethylpro-panoate)]?
A: IC50 [1]: > 3 µM; IC50 [2]: > 3 µM

Q: Which IC50 [1] does the source give for `CC(=O)N1CC[C@H]2CC[C@@H](C(=O)Nc3ccc(-c4ccccc4)cc3)N2C(=O)[C@@H](NC(=O)/C=C/c2ccc(C(F)(F)P(=O)(OCOC(=O)C(C)(C)C)OCOC(=O)C(C)(C)C)cc2)C1` [Compound 324, ((((4-((E)-3-(((5S,8S, 10aR)-8-([1,1′-biphenyl]-4-ylcarbamoyl)-3-acetyl-6-oxodecahydro-pyrrolo[1,2-a][1,5]diazocin-5-yl)amino)-3-oxoprop-1-en-1-yl)phenyl)difluoro-methyl)phosphoryl)bis(oxy))bis (methylene) bis(2,2-dimethylpro-panoate)] here?
A: > 3 µM

Q: And the IC50 [2]?
A: > 3 µM

Q: For `CC(=O)N1CC[C@H]2CC[C@@H](C(=O)Nc3ccc(-c4ccccc4)cc3)N2C(=O)[C@@H](NC(=O)/C=C/c2ccc(C(F)(F)P(=O)(OCCSC(=O)CC(C)C)OCCSC(=O)CC(C)C)cc2)C1` [Compound 325, S,S′-(((((4-((E)-3-(((5S,8S, 10aR)-8-([1,1′-biphenyl]-4-ylcarbamoyl)-3-acetyl-6-oxodecahydro-pyrrolo[1,2-a][1,5]diazocin-5-yl)amino)-3-oxoprop-1-en-1-yl)phenyl)difluoro-methyl)phosphoryl)bis(oxy))bis (ethane-2,1-diyl)) bis(3-methylbutane-thioate)], which IC50 [1] is on record?
A: > 3 µM

Q: What about the IC50 [2] of the same compound?
A: > 3 µM

Q: What does the source list for `CC(=O)N1CC[C@H]2CC[C@@H](C(=O)N(C)c3ccccc3)N2C(=O)[C@@H](NC(=O)c2cc3cc(C(F)(F)P(=O)(N[C@H](C)C(=O)OC(C)C)Oc4ccccc4)ccc3s2)C1` (stereo partly drawn) [Compound 326, isopropyl (((2-(((5S,8S, 10aR)-3-acetyl-8-(methyl (phenyl)carbamoyl)-6-oxodecahydro-pyrrolo[1,2-a][1,5]diazocin-5-yl)carbamoyl)benzo[b]thiophen-5-yl)difluoro-methyl) (phenoxy)phosphoryl)-D-alaninate]?
A: IC50 [1]: > 3 µM; IC50 [2]: > 3 µM
